Like-named read-outs stand apart in the source and are kept apart here. Values belong to the molecule of their own block, whether it stands above or below them.
Columns and labels:
HCT116 cells = assay: MTT assay; format: cell-based; conditions: Homo sapiens, HCT116 cells, 72 hours
Outline: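 Cells plated one day before dosing, then exposed to compound 72 h at 37 °C, 5% CO2. MTT at 0.5 mg/ml final for 4 h, solubilized in DMF/SDS buffer pH 4.7; OD converted to cell number from a standard growth curve.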

[1] = tested on: acetylated histone H-4 in T24 human bladder cancer cells; assay: Histone H4 acetylation in whole cells by immunoblots; format: cell-based; conditions: 16 h
Procedure: T24 human bladder cancer cells growing in culture were incubated with HDAC inhibitors for 16 h. […] of total histone protein was loaded onto SDS/PAGE and transferred to nitrocellulose membranes. Membranes were probed with polyclonal antibodies specific for acetylated histone H-4 (Upstate Biotech Inc.), followed by horse radish peroxidase conjugated secondary antibodies (Sigma). Enhanced Chemiluminescence (ECL) (Amersham) detection was performed using Kodak films (Eastman Kodak). Acetylated H-4 signal was quantified by densitometry.

[2] = target: T1, cloned recombinant human HDAC-1 (Homo sapiens, UniProt Q13547); assay: Human HDAC-1 enzyme inhibition, Assay 1 ([3H]-acetylated histone substrate, scintillation counting); format: biochemical
T1 construct: made in house; host or cells: Baculovirus insect cell expression system
Outline: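 Recombinant human HDAC-1 from baculovirus-infected insect cells, preincubated with compound 30 min at 4° C. before reaction. Released [3H]-acetic acid extracted with ethyl acetate and counted by scintillation. IC50 taken from dose-response curves as concentration giving half-maximal inhibition.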

[3] = T-24, Table 5c, read-out: H4Ac (T24) EC50
[4] = T-24, Table 5E, read-out: H4 Ac (T24) EC50
[5] = Table 5F, read-out: Human HDAC-1 IC50
[6] = T-24, Table 5F, read-out: H4 Ac (T24) EC50
[7] = T-24, Table 5d, read-out: H4Ac(T24) EC50
[8] = Table 5d, read-out: HDAC-1 IC50

T1 sequence (Q13547 whole entry): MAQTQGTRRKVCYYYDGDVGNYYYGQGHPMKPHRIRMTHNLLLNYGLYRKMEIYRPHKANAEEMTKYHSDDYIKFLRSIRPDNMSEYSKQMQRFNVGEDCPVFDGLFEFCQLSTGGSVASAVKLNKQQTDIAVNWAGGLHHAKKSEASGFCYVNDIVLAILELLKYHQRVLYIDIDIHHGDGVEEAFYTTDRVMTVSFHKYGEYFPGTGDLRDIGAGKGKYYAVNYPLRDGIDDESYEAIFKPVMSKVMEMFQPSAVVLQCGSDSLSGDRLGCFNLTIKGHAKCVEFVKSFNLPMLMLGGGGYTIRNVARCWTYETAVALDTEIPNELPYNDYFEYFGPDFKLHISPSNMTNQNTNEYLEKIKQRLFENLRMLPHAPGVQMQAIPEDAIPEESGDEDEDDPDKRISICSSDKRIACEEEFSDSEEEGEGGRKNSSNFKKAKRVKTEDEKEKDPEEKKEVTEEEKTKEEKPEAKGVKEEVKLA

IC50 (HCT116 cells; HCT-116, 72 h, Table 5c): 7000 nM
EC50 [1, 3]: 5 µM
Compound: Nc1ccccc1NC(=O)/C=C/c1ccc(NCc2ccncc2)nc1 [Cpd 91]

IC50 (HCT116 cells; HCT-116, 72 h, Table 5c): 2000 nM
EC50 [1, 3]: 3 µM
Compound: Nc1ccccc1NC(=O)/C=C/c1ccc(NCc2ccc(F)cc2)nc1 [Cpd 92, N-(2-aminophenyl)-3-[6-(4-fluoro-benzylamino)-pyridin-3-yl]-acrylamide]

IC50 (HCT116 cells; HCT-116, 72 h, Table 5c): 1000 nM
EC50 [1, 3]: 5 µM
Compound: Nc1ccccc1NC(=O)/C=C/c1ccc(NCc2ccccc2)nc1 [Cpd 93, N-(2-aminophenyl)-3-(6-benzylamino-pyridin-3-yl)-acrylamide]

IC50 (HCT116 cells; HCT-116, 72 h, Table 5c): 2000 nM
EC50 [1, 3]: 5 µM
Compound: Nc1ccccc1NC(=O)/C=C/c1ccc(NCCCc2ccccc2)nc1 [Cpd 94, N-(2-aminophenyl)-3-[6-(3-phenyl-propylamino)-pyridin-3-yl]-acrylamide]

IC50 (HCT116 cells; HCT-116, 72 h, Table 5c): 3000 nM
EC50 [1, 3]: 25 µM
Compound: CN(C)c1ccc(CNc2ccc(/C=C/C(=O)Nc3ccccc3N)cn2)cc1 [Cpd 96, N-(2-aminophenyl)-3-[6-(4-dimethylamino-benzylamino)-pyridin-3-yl]-acrylamide]

IC50 (HCT116 cells; HCT-116, 72 h, Table 5c): 5000 nM
EC50 [1, 3]: 10 µM
Compound: Nc1ccccc1NC(=O)/C=C/c1ccc(NCc2ccc(OC(F)(F)F)cc2)nc1 [Cpd 99, N-(2-aminophenyl)-3-[6-(4-trifluoromethoxy-benzylamino)-pyridin-3-yl]-acrylamide]

IC50 (HCT116 cells; HCT-116, 72 h, Table 5c): 5000 nM
EC50 [1, 3]: 5 µM
Compound: COc1cc(N(C)Cc2ccc(/C=C/C(=O)Nc3ccccc3N)cc2)cc(OC)c1OC [Cpd 108]

IC50 (HCT116 cells; HCT-116, 72 h, Table 5c): 300 nM
EC50 [1, 3]: 5 µM
Compound: Nc1ccccc1NC(=O)/C=C/c1cnc(NCc2ccc([N+](=O)[O-])cc2)nc1 [Cpd 113, N-(2-amino-phenyl)-3-[2-(4-nitro-benzylamino)-pyrimidin-5-yl]-acrylamide]

IC50 (HCT116 cells; HCT-116, 72 h, Table 5c): 2000 nM
EC50 [1, 3]: 5 µM
Compound: COc1cc(CNc2ccc(/C=C/C(=O)Nc3ccccc3N)cn2)cc(OC)c1OC [Cpd 116, N-(2-aminophenyl)-3-[6-(3,4,5-trimethoxy-benzylamino)-pyridin-3-yl]-acrylamide]

IC50 (HCT116 cells; HCT-116, 72 h, Table 5E): 2000 nM
EC50 [1, 4]: 3 µM
Compound: COc1cc(NCc2ccc(C(=O)Nc3ccccc3N)cc2)cc(OC)c1OC [Cpd 164]

IC50 (HCT116 cells; HCT-116, 72 h, Table 5E): 1000 nM
EC50 [1, 4]: 3 µM
Compound: COc1cc(CNc2ccc(C(=O)Nc3ccccc3N)cn2)cc(OC)c1OC [Cpd 176]

IC50 ([2]; Table 5b, read-out: Human HDAC-1 IC50): 4 µM
EC50 ([1]; T-24, Table 5b, read-out: H4Ac (T24) EC50): 5 µM
Compound: Nc1nc(Nc2ccc(C(=O)Nc3ccccc3N)cc2)nc(NC2Cc3ccccc3C2)n1 [Cpd 204]

IC50 [2, 5]: 4 µM
EC50 [1, 6]: 3 µM
Compound: COc1cc(-c2ccc3sc(NCc4ccc(C(=O)Nc5ccccc5N)cc4)nc3c2)cc(OC)c1OC [Cpd 231]

IC50 [2, 5]: 2 µM
EC50 [1, 6]: 1 µM
Compound: Nc1ccccc1NC(=O)c1ccc(CNc2nc3cc(Cl)ccc3o2)cc1 [Cpd 320, N-(2-Amino-phenyl)-4-[(5-chloro-benzooxazol-2-ylamino)-methyl]-benzamide]

IC50 [2, 5]: 2 µM
EC50 [1, 6]: 1 µM
Compound: Nc1ccccc1NC(=O)c1ccc(CNc2nc(Cl)cc(N3CCOCC3)n2)cc1 [Cpd 411, N-(2-Amino-phenyl)-4-[(4-chloro-6-morpholin-4-yl-pyrimidin-2-ylamino)-methyl]-benzamide]

IC50 (HCT116 cells; HCT-116, 72 h, Table 5F): 2000 nM
EC50 [1, 6]: 3 µM
Compound: COc1cc(CNc2ccc(C(=O)Nc3ccccc3N)cc2)cc(OC)c1OC [Cpd 412, N-(2-Amino-phenyl)-4-(3,4,5trimethoxybenzylamino)-benzamide]

IC50 (HCT116 cells; HCT-116, 72 h, Table 5F): 400 nM
EC50 [1, 6]: 1 µM
Compound: COc1ccc(NCc2ccc(C(=O)Nc3ccccc3N)cc2)cc1OC [Cpd 424b]

IC50 (HCT116 cells; HCT-116, 72 h, Table 5F): 2000 nM
EC50 [1, 6]: 1 µM
Compound: COc1ccc(NCc2ccc(C(=O)Nc3ccccc3N)cc2)cc1 [Cpd 427, N-(2-Amino-phenyl)-4-[(4-methoxy-phenylamino)-methyl]-benzamide]

IC50 (HCT116 cells; HCT-116, 72 h, Table 5F): 600 nM
EC50 [1, 6]: 2 µM
Compound: COc1ccc(CNc2ccc(C(=O)Nc3ccccc3N)cc2)cc1OC [Cpd 434, N-(2-Amino-phenyl)-4-(3,4-dimethoxy-benzylamino)-benzamide]

IC50 (HCT116 cells; HCT-116, 72 h, Table 5F): 100 nM
EC50 [1, 6]: 2 µM
Compound: COc1ccc(-c2ccnc(NCc3ccc(C(=O)Nc4ccccc4N)cc3)n2)cc1OC [Cpd 440, N-(2-Amino-phenyl)-4-{[4-(3,4-dimethoxy-phenyl)-pyrimidin-2-ylamino]-methyl}-benzamide]

IC50 (HCT116 cells; HCT-116, Table 5d): 3000 nM
EC50 [1, 7]: 5 µM
Compound: COc1cc(NCc2ccc(/C=C/C(=O)Nc3ccccc3N)cn2)cc(OC)c1OC [Cpd 512, N-(2-Amino-phenyl)-3-{6-[(3,4,5-trimethoxy-phenylamino)-methyl]-pyridin-3-yl}-acrylamide]

IC50 (HCT116 cells; HCT-116, Table 5d): 5000 nM
EC50 [1, 7]: 4 µM
Compound: COc1ccc(NCc2ccc(/C=C/C(=O)Nc3ccccc3N)cc2)cc1OC [Cpd 542, N-(2-Amino-phenyl)-3-{4-[(3,4-dimethoxy-phenylamino)-methyl]-phenyl}-acrylamide]

IC50 (HCT116 cells; HCT-116, Table 5d): 17000 nM
IC50 [2, 8]: 5 µM
Compound: CSc1ccc(NCc2ccc(/C=C/C(=O)Nc3ccccc3N)cc2)cc1F [Cpd 565, N-(2-Amino-phenyl)-3-{4-[(3-fluoro4-methylsulfanyl-phenylamino)-methyl]-phenyl}-acrylamide]

IC50 (HCT116 cells; HCT-116, Table 5d): 16000 nM
IC50 [2, 8]: 3 µM
Compound: CSc1ccc(NCc2ccc(/C=C/C(=O)Nc3ccccc3N)cc2)cc1C(F)(F)F [Cpd 566, N-(2-Amino-phenyl)-3-{4-[(4-methylsulfanyl-3-trifluoromethyl-phenylamino)-methyl]-phenyl]-acrylamide]

IC50 (HCT116 cells; HCT-116, Table 5d): 3000 nM
IC50 [2, 8]: 13 µM
Compound: COc1cc(NCc2ccc(/C=C/C(=O)Nc3ccccc3N)cc2[N+](=O)[O-])cc(OC)c1OC [Cpd 567]

IC50 (HCT116 cells; HCT-116, Table 5d): 39000 nM
IC50 [2, 8]: > 25 µM
Compound: COc1cc(NCc2ccc(/C=C/C(=O)Nc3ccccc3N)cc2N)cc(OC)c1OC [Cpd 568]

IC50 (HCT116 cells; HCT-116, Table 5d): 6000 nM
IC50 [2, 8]: 18 µM
Compound: COc1ccc(-c2ccc(/C=C/C(=O)Nc3ccccc3N)cn2)cc1OC [Cpd 569]

IC50 (HCT116 cells; HCT-116, 72 h, Table 5F): 11000 nM
IC50 [2, 5]: 4 µM
Compound: COc1cc(NCc2ccc(C(=O)Nc3ccccc3N)cc2)cc(OC)c1OC [Cpd 571]

IC50 (HCT116 cells; HCT-116, 72 h, Table 5F): 5000 nM
EC50 [1, 6]: 5 µM
Compound: COc1ccc(NCc2ccc(C(=O)Nc3ccccc3O)cc2)cc1OC [Cpd 572, N-(2-hydroxy-phenyl)-4-[(3,4-Dimethoxy-phenylamino)-methyl]-benzamide]

IC50 (HCT116 cells; HCT-116, 72 h, Table 5F): 6000 nM
IC50 [2, 5]: 5 µM
Compound: COc1ccc(CNc2ccc(C3CC3C(=O)Nc3ccccc3N)cn2)cc1 (centres unmarked) [Cpd 576]

IC50 (HCT116 cells; HCT-116, 72 h, Table 5F): 100 nM
EC50 [1, 6]: 1 µM
Compound: COc1ccc(-c2ccnc(NCc3ccc(C(=O)Nc4ccccc4N)cc3)n2)cn1 [Cpd 578, N-(2-Amino-phenyl)-4-{[4-(6-methoxy-pyridin-3-yl)-pyrimidin-2-ylamino]-methyl}-benzamide]

IC50 (HCT116 cells; HCT-116, 72 h, Table 5F): 4000 nM
IC50 [2, 5]: 9 µM
Compound: CCN1C(=O)C(Cc2ccc(C(=O)Nc3ccccc3N)cc2)Oc2ccccc21 (centres unmarked) [compound 269, N-(2-Amino-phenyl)-4-(4-ethyl-3-oxo-3,4-dihydro-2H-benzo[1,4]oxazin-2-ylmethyl)-benzamide]

IC50 (HCT116 cells; HCT-116, 72 h, Table 5F): 5000 nM
IC50 [2, 5]: 3 µM
Compound: Cc1nc(Cc2ccc(C(=O)Nc3ccccc3N)cc2)no1 [compound 284, N-(2-Amino-phenyl)-4-(5-methyl-[1,2,4]oxadiazol-3-ylmethyl)-benzamide]

IC50 (HCT116 cells; HCT-116, 72 h, Table 5F): 2000 nM
IC50 [2, 5]: 5 µM
Compound: Cc1cc(C)n(-c2ccc(C(=O)Nc3ccccc3N)cc2)n1 [compound 286, N-(2-Amino-phenyl)-4-(3,5-dimethyl-pyrazol-1-yl)-benzamide]

IC50 (HCT116 cells; HCT-116, 72 h, Table 5F): 5000 nM
IC50 [2, 5]: 17 µM
Compound: COc1cc(C2C=CC(c3ccc(C(=O)Nc4ccccc4N)cc3)O2)cc(OC)c1OC (centres unmarked) [compound 289, N-(2-Amino-phenyl)-4-[5-(3,4,5-trimethoxy-phenyl)-2,5-dihydro-furan-2-yl]-benzamide]

IC50 (HCT116 cells; HCT-116, 72 h, Table 5F): 3000 nM
IC50 [2, 5]: 11 µM
Compound: COc1cc(C2CCC(c3ccc(C(=O)Nc4ccccc4N)cc3)O2)cc(OC)c1OC (centres unmarked) [compound 290, N-(2-Amino-phenyl)-4-[5-(3,4,5-trimethoxy-phenyl)-tetrahydro-furan-2-yl]-benzamide]

IC50 (HCT116 cells; HCT-116, 72 h, Table 5F): 7000 nM
IC50 [2, 5]: 20 µM
Compound: COc1cc(N2C(=O)OCC2c2ccc(C(=O)Nc3ccccc3N)cc2)cc(OC)c1OC (centres unmarked) [compound 296, N-(2-Amino-phenyl)-4-[2-oxo-3-(3,4,5-trimethoxy-phenyl)-oxazolidin-4-yl]-benzamide]

IC50 (HCT116 cells; HCT-116, 72 h, Table 5F): 3000 nM
IC50 [2, 5]: 3 µM
Compound: COc1ccc(C2=NC(c3ccc(C(=O)Nc4ccccc4N)cc3)CO2)cc1OC (centres unmarked) [compound 301, N-(2-Amino-phenyl)-4-[2-(3,4-dimethoxy-phenyl)-4,5-dihydro-oxazol-4-yl]-benzamide]

IC50 (HCT116 cells; HCT-116, 72 h, Table 5F): 2000 nM
IC50 [2, 5]: 4 µM
Compound: COc1ccc(C2=NCC(c3ccc(C(=O)Nc4ccccc4N)cc3)O2)cc1OC (centres unmarked) [compound 305, N-(2-Amino-phenyl)-4-[2-(3,4-dimethoxy-phenyl)-4,5-dihydro-oxazol-5-yl]-benzamide]

IC50 (HCT116 cells; HCT-116, 72 h, Table 5F): 8000 nM
IC50 [2, 5]: 4 µM
Compound: Nc1ccccc1NC(=O)c1ccc(Sc2ccc3ccccc3n2)nc1 [compound 319, N-(2-Amino-phenyl)-6-(quinolin-2-ylsulfanyl)-nicotinamide]

From patent US7868204B2, “Inhibitors of histone deacetylase” (MethylGene Inc., priority 2001, dated 2011)
